# Results from US20240368127A1, “HSD17B13 INHIBITORS AND USES THEREOF” (FL2022-001, Inc., priority 2021, published 2024).
# pIC50: −log10 of the molar value.
# Target: T1, Recombinant human HSD17B13 enzyme (Homo sapiens, UniProt Q7Z5P4)
# T1 sequence (Q7Z5P4 20-300): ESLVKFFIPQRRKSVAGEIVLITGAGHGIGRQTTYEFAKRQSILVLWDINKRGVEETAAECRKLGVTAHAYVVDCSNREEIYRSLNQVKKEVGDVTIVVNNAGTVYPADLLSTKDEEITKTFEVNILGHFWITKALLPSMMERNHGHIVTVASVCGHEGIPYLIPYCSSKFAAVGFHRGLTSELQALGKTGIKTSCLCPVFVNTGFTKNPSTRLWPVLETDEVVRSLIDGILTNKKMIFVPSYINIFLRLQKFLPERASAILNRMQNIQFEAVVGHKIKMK
# Assay: HSD17b13 NAD(P)H-Glo biochemical assay
# Conditions: 50 μM estradiol, 1 mM NAD+, 37° C. for 3 hours; read-out: HSD17β13 IC50
# Experimental: Example B-1: HSD17b13 NAD (P) H-Glo Biochemical Assay
# Recombinant human HSD17B13 enzyme. Substrate: estradiol (Sigma β-Estradiol E8875), 100 mM in DMSO. Cofactor: NAD+ Grade I free acid (Sigma 10127965001), 20 mM in H2O. Assay buffer final concentration: 20 mM Tris pH7.4 with 0.002% Tween-20 and 0.02% BSA. Assay performed in 384 well solid bottom plate (Corning 3570). Enzymatic activity detected by NAD (P) H-Glo™ Detection System (Promega G9062).
# Inhibitor compounds were serially diluted in DMSO and then further diluted in assay buffer to a 10× concentration consisting of 1% DMSO.
# HSD17b13 enzyme was diluted in 1× assay buffer to the desired enzyme concentration based on the specific activity of the enzyme lot. 20 μL of diluted enzyme was added to each well along with 2.5 μL of 10× inhibitor solution. Assay plate was incubated at RT for 20 minutes, and then 2.5 μL of a 10× substrate/cofactor mix was added to each well for a final concentration of 50 μM estradiol and 1 mM NAD+. Assay plate was incubated at 37° C. for 3 hours. NAD (P) H-Glo™ Detection System reagents were prepared according to manufacturer's specifications, and 25 μL was added to each well. After incubating for 1 hour at RT, luminescence was measured.
row,SMILES,pIC50
1,"Cn1nc(-c2cc(C(F)(F)F)c(F)c(O)c2F)c2cnc(N3CCN(S(C)(=O)=O)C[C@@H]3CC3CCCCC3)nc21 (single isomer, unassigned) [Compound 15.01]",≥ 7.00
2,"Cn1nc(-c2cc(C(F)(F)F)c(F)c(O)c2F)c2cnc(N3CCOC[C@H]3CC3CCCCC3)nc21 (single isomer, unassigned) [Compound 15.04]",≥ 7.00
3,"CS(=O)(=O)N1CCN(c2ccc(-n3nnc4cc(F)c(O)c(F)c43)cc2)[C@H](Cc2ccccc2)C1 [Compound 1, (R)-1-(4-(2-Benzyl-4-(methylsulfonyl)piperazin-1-yl)phenyl)-5,7-difluoro-1H-benzo[d][1,2,3]triazol-6-ol]",≥ 7.00
4,"CS(=O)(=O)N1CCN(c2ccc(-n3nnc4cc(F)c(O)c(F)c43)cc2)[C@@H](Cc2ccccc2)C1 [Compound 1.01, (S)-1-(4-(2-Benzyl-4-(methylsulfonyl)piperazin-1-yl)phenyl)-5,7-difluoro-1H-benzo[d][1,2,3]triazol-6-ol]",6.00 to 7.00
5,"CS(=O)(=O)N1CCN(c2ccc(-n3nnc4cc(F)c(O)c(F)c43)cc2)C[C@@H]1Cc1ccccc1 [Compound 1.02, (S)-1-(4-(3-Benzyl-4-(methylsulfonyl)piperazin-1-yl)phenyl)-5,7-difluoro-1H-benzo[d][1,2,3]triazol-6-ol]",≥ 7.00
6,"CS(=O)(=O)N1CCN(c2ccc(-n3nnc4cc(F)c(O)c(F)c43)cc2)C[C@H]1Cc1ccccc1 [Compound 1.03, (R)-1-(4-(3-Benzyl-4-(methylsulfonyl)piperazin-1-yl)phenyl)-5,7-difluoro-1H-benzo[d][1,2,3]triazol-6-ol]",≥ 7.00
7,"Oc1c(F)cc2nnn(-c3ccc(N4CCO[C@@H](Cc5ccccc5)C4)cc3)c2c1F [Compound 1.04, (S)-1-(4-(2-Benzylmorpholino)phenyl)-5,7-difluoro-1H-benzo[d][1,2,3]triazol-6-ol]",6.00 to 7.00
8,"Oc1c(F)cc2nnn(-c3ccc(N4CCOC[C@H]4Cc4ccccc4)cc3)c2c1F [Compound 1.05, (R)-1-(4-(3-Benzylmorpholino)phenyl)-5,7-difluoro-1H-benzo[d][1,2,3]triazol-6-ol]",6.00 to 7.00
9,"Oc1c(F)cc2nnn(-c3ccc(N4CC[C@H](Cc5ccccc5)C4)cc3)c2c1F [Compound 1.07, (S)-1-(4-(3-Benzylpyrrolidin-1-yl)phenyl)-5,7-difluoro-1H-benzo[d][1,2,3]triazol-6-ol]",≥ 7.00
10,"Oc1c(F)cc2nnn(-c3ccc(N4CCC(Cc5ccccc5)CC4)cc3)c2c1F [Compound 1.08, 1-(4-(4-Benzylpiperidin-1-yl)phenyl)-5,7-difluoro-1H-benzo[d][1,2,3]triazol-6-ol]",≥ 7.00
11,"CC1(Cc2ccccc2)CCN(c2ccc(-n3nnc4cc(F)c(O)c(F)c43)cc2)CC1 [Compound 1.10, 1-(4-(4-Benzyl-4-methylpiperidin-1-yl)phenyl)-5,7-difluoro-1H-benzo[d][1,2,3]triazol-6-ol]",≥ 7.00
12,"Cc1nn(-c2cc(C(F)(F)F)c(F)c(O)c2F)c2cnc(N3CCN(S(C)(=O)=O)C[C@H]3Cc3ccccc3)cc12 [Compound 2.02, (R)-3-(5-(2-Benzyl-4-(methylsulfonyl)piperazin-1-yl)-3-methyl-1H-pyrazolo[3,4-c]pyridin-1-yl)-2,6-difluoro-5-(trifluoromethyl)phenol]",≥ 7.00
13,"Cc1nn(-c2cc(C(F)(F)F)c(F)c(O)c2F)c2cnc(N3CCN(S(C)(=O)=O)C[C@@H]3Cc3ccccc3)cc12 [Compound 2.03, (S)-3-(5-(2-Benzyl-4-(methylsulfonyl)piperazin-1-yl)-3-methyl-1H-pyrazolo[3,4-c]pyridin-1-yl)-2,6-difluoro-5-(trifluoromethyl)phenol]",6.00 to 7.00
14,"Cc1nn(-c2cc(C(F)(F)F)c(F)c(O)c2F)c2cnc(N3CCOC(Cc4ccccc4)C3)cc12 (centres unmarked) [Compound 2.04, 3-(5-(2-Benzylmorpholino)-3-methyl-1H-pyrazolo[3,4-c]pyridin-1-yl)-2,6-difluoro-5-(trifluoromethyl)phenol]",≥ 7.00
15,"Cc1nn(-c2cc(C(F)(F)F)cc(O)c2F)c2cnc(N3CCOC(Cc4ccccc4)C3)cc12 (centres unmarked) [Compound 2.05, 3-(5-(2-Benzylmorpholino)-3-methyl-1H-pyrazolo[3,4-c]pyridin-1-yl)-2-fluoro-5-(trifluoromethyl)phenol]",6.00 to 7.00
16,"CS(=O)(=O)N1CCN(c2ccc3c(c2)c(Cl)nn3-c2cc(C(F)(F)F)c(F)c(O)c2F)[C@H](Cc2ccccc2)C1 [Compound 2.06, (R)-3-(5-(2-Benzyl-4-(methylsulfonyl)piperazin-1-yl)-3-chloro-1H-indazol-1-yl)-2,6-difluoro-5-(trifluoromethyl)phenol]",≥ 7.00
17,"Cc1nn(-c2cc(C(F)(F)F)c(F)c(O)c2F)c2cnc(N3CCN(S(C)(=O)=O)[C@H](Cc4ccccc4)C3)cc12 [Compound 2.07, (R)-3-(5-(3-Benzyl-4-(methylsulfonyl)piperazin-1-yl)-3-methyl-1H-pyrazolo[3,4-c]pyridin-1-yl)-2,6-difluoro-5-(trifluoromethyl)phenol]",≥ 7.00
18,"CS(=O)(=O)N1CCN(c2ncc3c(cnn3-c3cc(C(F)(F)F)c(F)c(O)c3F)n2)[C@H](Cc2ccccc2)C1 [Compound 2.09, (R)-3-(5-(2-Benzyl-4-(methylsulfonyl)piperazin-1-yl)-1H-pyrazolo[4,3-d]pyrimidin-1-yl)-2,6-difluoro-5-(trifluoromethyl)phenol]",≥ 7.00
19,"Cc1nn(-c2cc(C(F)(F)F)c(F)c(O)c2F)c2ccc(N3CCN(S(C)(=O)=O)C[C@H]3Cc3ccccc3)cc12 [Compound 2.13, (R)-3-(5-(2-Benzyl-4-(methylsulfonyl)piperazin-1-yl)-3-methyl-1H-indazol-1-yl)-2,6-difluoro-5-(trifluoromethyl)phenol]",≥ 7.00

# Next, values leading:
row,pIC50,SMILES
1,≥ 7.00,"Cn1nc(-c2cc(C(F)(F)F)c(F)c(O)c2F)c2cnc(N3CC[C@H]3Cc3ccccc3)nc21 (single isomer, unassigned) [Compound 15.10]"
2,≥ 7.00,"Oc1c(F)cc2nnn(-c3ccc(N4CC[C@@H](Cc5ccccc5)C4)cc3)c2c1F [Compound 1.06, (R)-1-(4-(3-Benzylpyrrolidin-1-yl)phenyl)-5,7-difluoro-1H-benzo[d][1,2,3]triazol-6-ol]"
3,≥ 7.00,"Oc1c(F)cc2nnn(-c3ccc(N4CCCC(Cc5ccccc5)CC4)cc3)c2c1F (centres unmarked) [Compound 1.09, 1-(4-(4-Benzylazepan-1-yl)phenyl)-5,7-difluoro-1H-benzo[d][1,2,3]triazol-6-ol]"
4,≥ 7.00,"Cc1nn(-c2cc(C(F)(F)F)c(F)c(O)c2F)c2cnc(N3CCN(S(C)(=O)=O)C[C@H]3Cc3ccccc3)nc12 [Compound 2, (R)-3-(5-(2-Benzyl-4-(methylsulfonyl)piperazin-1-yl)-3-methyl-1H-pyrazolo[4,3-d]pyrimidin-1-yl)-2,6-difluoro-5-(trifluoromethyl)phenol]"
5,≥ 7.00,"Cc1nn(-c2cc(C(F)(F)F)c(F)c(O)c2F)c2cnc(N3CCOCC3Cc3ccccc3)cc12 (centres unmarked) [Compound 2.01, 3-(5-(3-Benzylmorpholino)-3-methyl-1H-pyrazolo[3,4-c]pyridin-1-yl)-2,6-difluoro-5-(trifluoromethyl)phenol]"
6,≥ 7.00,CC(=O)c1nn(-c2cc(C(F)(F)F)c(F)c(O)c2F)c2ccc(N3CCN(S(C)(=O)=O)C[C@H]3Cc3ccccc3)cc12 [Compound 2.08]
7,≥ 7.00,"Cc1nn(-c2cc(C(F)(F)F)c(F)c(O)c2F)c2cnc(N3CCN(S(C)(=O)=O)[C@@H](Cc4ccccc4)C3)cc12 [Compound 2.10, (S)-3-(5-(3-Benzyl-4-(methylsulfonyl)piperazin-1-yl)-3-methyl-1H-pyrazolo[3,4-c]pyridin-1-yl)-2,6-difluoro-5-(trifluoromethyl)phenol]"
8,≥ 7.00,"Cc1nn(-c2cc(C(F)(F)F)c(Cl)c(O)c2F)c2cnc(N3CCN(S(C)(=O)=O)C[C@H]3Cc3ccccc3)cc12 [Compound 2.11, (R)-3-(5-(2-Benzyl-4-(methylsulfonyl)piperazin-1-yl)-3-methyl-1H-pyrazolo[3,4-c]pyridin-1-yl)-6-chloro-2-fluoro-5-(trifluoromethyl)phenol]"
9,≥ 7.00,"CS(=O)(=O)N1CCN(c2ccc3c(c2)c(N)nn3-c2cc(C(F)(F)F)c(F)c(O)c2F)[C@H](Cc2ccccc2)C1 [Compound 2.12, (R)-3-(3-Amino-5-(2-benzyl-4-(methylsulfonyl)piperazin-1-yl)-1H-indazol-1-yl)-2,6-difluoro-5-(trifluoromethyl)phenol]"
10,≥ 7.00,"CNc1nn(-c2cc(C(F)(F)F)c(F)c(O)c2F)c2ccc(N3CCN(S(C)(=O)=O)C[C@H]3Cc3ccccc3)cc12 [Compound 2.14, (R)-3-(5-(2-Benzyl-4-(methylsulfonyl)piperazin-1-yl)-3-(methylamino)-1H-indazol-1-yl)-2,6-difluoro-5-(trifluoromethyl)phenol]"
